Measurements from ChEMBL document CHEMBL4190184, “Synthesis and Biological Evaluation of Benzocyclooctene-based and Indene-based Anticancer Agents that Function as Inhibitors of Tubulin Polymerization” (Medchemcomm, 2016).
The source made the active and inactive calls. No cut-off for these calls is given here.

How the values were obtained:
SK-OV-3 = assay: Growth inhibition of human SKOV3 cells after 48 hrs by SRB assay; type: functional; settings: SK-OV-3, 48 h
DU-145 = assay: Growth inhibition of human DU145 cells after 48 hrs by SRB assay; type: functional; settings: DU-145, 48 h
[1] = Inhibition of bovine brain tubulin polymerization preincubated for 15 mins followed by GTP addition measured after 20 mins by spectrophotometric method; set-up: species or system Bos taurus
NCI-H460 = assay: Growth inhibition of human NCI-H460 cells after 48 hrs by SRB assay; type: functional; settings: NCI-H460, 48 h
MCF7 [2] = assay: Induction of vascular disruption in human luc-GFP-mCherry-tagged MCF7 cells implanted in SCID-NOD mouse assessed as reduction in bioluminescence at 120 mg/kg, ip administered as single dose measured at 4 hrs post dose by luciferase reporter gene based imaging analysis relative to control; type: functional; set-up: scale not given: the % may be the effect or the level left
MCF7 [3] = assay: Induction of necrosis in human luc-GFP-mCherry-tagged MCF7 cells implanted in SCID-NOD mouse at 120 mg/kg, ip administered as single dose measured after 48 hrs by haematoxylin and eosin staining based microscopy; type: functional, organism-based
Bos taurus = species: Bos taurus; assay: Inhibition of [3H]colchicine binding to bovine brain tubulin at 5 uM after 10 mins by scintillation counting method relative to control
MCF7 [4] = assay: Induction of vascular disruption in human luc-GFP-mCherry-tagged MCF7 cells implanted in SCID-NOD mouse assessed as reduction in bioluminescence at 120 mg/kg, ip administered as single dose measured at 24 to 48 hrs post dose by luciferase reporter gene based imaging analysis; type: functional, organism-based

| Structure (SMILES) | GI50 (SK-OV-3) [nM] | GI50 (DU-145) [nM] | IC50 [1] [nM] | GI50 (NCI-H460) [nM] | Activity (MCF7 [2]) [%] | Activity (MCF7 [3]) | inhibition (Bos taurus) [%] | Activity (MCF7 [4]) |
| --- | --- | --- | --- | --- | --- | --- | --- | --- |
| COc1cc(C2=CCc3c2ccc(OC)c3OC)cc(OC)c1OC | 9460 | 34600 | > 20000 | 42200 |  |  |  |  |
| COc1ccc(/C=C\c2cc(OC)c(OC)c(OC)c2)cc1OP(=O)(O)O [FOSBRETABULIN] | 1.9 | 3.36 | > 20000 | 2.82 | 80 | Active |  |  |
| COc1ccc2c(c1O)CCCC/C=C\2c1cc(OC)c(OC)c(OC)c1 | 81.1 | 105 | 1200 | 107 |  |  | 78 |  |
| COc1cc(/C2=C/CCCCc3c2ccc(OC)c3OC)cc(OC)c1OC | 512 | 448 | 4500 | 395 |  |  | 31 |  |
| COc1cc(C2=CCc3c2ccc(OC)c3OP(=O)(O)O)cc(OC)c1OC | 334 | 3340 | > 20000 | 1500 |  |  |  |  |
| COc1ccc2c(c1)CC=C2c1cc(OC)c(OC)c(OC)c1 | 6150 | 4660 | > 20000 | 4020 |  |  |  |  |
| COc1cc(/C2=C/CCCCc3c2ccc(OC)c3OP(=O)([O-])[O-])cc(OC)c1OC.[Na+].[Na+] | 36.6 | 41 | > 20000 | 26 | 80 | Active |  | Active |
| COc1ccc2c(c1)CCCC/C=C\2c1cc(OC)c(OC)c(OC)c1 | 400 | 570 | 3000 | 431 |  |  | 29 |  |
| COc1ccc2c(c1O)CC=C2c1cc(OC)c(OC)c(OC)c1 | 704 | 362 | 11000 | 388 |  |  | 17 |  |
